Test results: patent US11566229B2, “Expansion and maintenance of adult primary human hepatocytes in culture” (Wisconsin Alumni Research Foundation, priority 2018, dated 2023)

Assays:
[1] = tested on: mouse adult proliferating hepatocytes; settings: U0126 treated mouse adult proliferating hepatocytes
Excerpt: Total RNA was qualified with Life Technologies Qubit fluorometer (Q32857) and Agilent Bioanalyzer (G2940CA). Total RNA was used to prepare indexed cDNA libraries with the Ligation Mediated Sequencing (LM-Seq) protocol (Hou, Z et al. 2015). Final indexed cDNA libraries were pooled with forty-four uniquely indexed LM-Seq cDNA libraries per lane and sequenced on an Illumina HiSeq 3000.
We derived SHPCs from adult mouse liver and treated them with the MAPK inhibitor U0126.

[2] = tested on: ESC-hepatocyte derived SHPCs; settings: SHPC medium, co-cultured with MEFs and U0126; QPCR, FIG. 6
Excerpt: We treated the ESC-hepatocyte derived SHPCs in SHPC medium and co-cultured with MEFs and U0126. We FAC sorted the albumin reporter expressing hepatocytes and performed QPCR.

Compound: N#CC(=C(/N)Sc1ccccc1N)/C(C#N)=C(\N)Sc1ccccc1N [U0126]
- CYP1A2 gene expression (RNA-Seq) ([1]; vehicle 1): 78
- RARA gene expression (RNA-Seq) ([1]; vehicle 1): 5
- AHR gene expression (RNA-Seq) ([1]; vehicle 4): 11
- UGT1A1 gene expression (RNA-Seq) ([1]; vehicle 6): 54
- CYP3A16 (human fetal CYP3A4) gene expression (RNA-Seq) ([1]; vehicle 15): 2
- RXRA gene expression (RNA-Seq) ([1]; vehicle 28): 40
- UGT1A6A gene expression (RNA-Seq) ([1]; vehicle 28): 189
- CYP1A1 gene expression (RNA-Seq) ([1]; vehicle 36): 1447
- APOH gene expression (RNA-Seq) ([1]; vehicle 128): 245
- HNF4A gene expression (RNA-Seq) ([1]; vehicle 254): 340
- APOB gene expression (RNA-Seq) ([1]; vehicle 332): 567
- CYP3A11 (human adult CYP3A4) gene expression (RNA-Seq) ([1]; vehicle 496): 563
- Albumin gene expression (RNA-Seq) ([1]; vehicle 6523): 11379
- increase in CYP3A expression [2]: 3 fold
- increase in albumin expression [2]: 2 fold
